Two compounds from article PMC9008429, “Identification of a New Cholesterol‐Binding Site within the IFN‐γ Receptor that is Required for Signal Transduction” (Advanced Science, 2022) can be followed below.

Positions count from the first letter of the chain named.

Assay [1] has as its target T1, IFN-γR2 (Homo sapiens, UniProt P38484).
T1 construct: gene IFNGR2; full-length, C-terminal GFP fusion (peGFP-N1); transiently expressed in CHO (with IFN-γR1-RLuc) or HAP1 IFN-γR2 KO cells; in the functional receptor two R1 and two R2 chains
T1 sequence (P38484 22-337): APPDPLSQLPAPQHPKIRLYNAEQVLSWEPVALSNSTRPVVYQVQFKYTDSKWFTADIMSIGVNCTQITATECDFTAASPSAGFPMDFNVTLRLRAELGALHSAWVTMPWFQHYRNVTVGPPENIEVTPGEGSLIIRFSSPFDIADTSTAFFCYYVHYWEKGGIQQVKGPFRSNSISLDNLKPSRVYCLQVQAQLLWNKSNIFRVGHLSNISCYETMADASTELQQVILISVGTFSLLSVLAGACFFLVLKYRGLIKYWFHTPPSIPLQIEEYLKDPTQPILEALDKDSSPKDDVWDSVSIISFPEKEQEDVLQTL
In words: competition of photoaffinity labelling in living cells, anti-GFP IP, autoradiography. The note with it: competes with [3H]-photo-chol, dose-dependent; curve only in supplement. It counts as cell-based.

Assay [2] deals with T2, IFN-γR2 (Homo sapiens, UniProt P38484, L250T/I251T/G254F).
T2 construct: gene IFNGR2; full-length, C-terminal GFP fusion (peGFP-N1); transiently expressed in CHO (with IFN-γR1-RLuc) or HAP1 IFN-γR2 KO cells
T2 sequence (P38484 22-337 L250T/I251T/G254F): T1 sequence (P38484 22-337) with L229T, I230T, G233F
In words: in vivo photoaffinity labelling, UV cross-link, anti-GFP IP, autoradiography. The conditions noted are these: 3 µM probe, 6 h; full-length GFP fusion, CHO and HAP1 IFN-γR2 KO cells; covalent; labelled compound; with or without IFN-γ. It counts as cell-based.

Regarding `CC(C)CCC[C@@H](C)[C@H]1CC[C@H]2[C@@H]3CC=C4C[C@@H](O)CC[C@]4(C)[C@H]3CC[C@]12C` [chol], the “competition of photoaffinity labelling in living cells, anti-GFP IP, autoradiogr” value in assay [1] is “cross‐linking between [^3H]‐photo‐chol and IFN‐γR2 was competed in a dose‐dependent manner”. With [3H]-photo-chol, the “% reduction of chol binding vs wild type” value in assay [2] is recorded as greater than 50%.
